Experimental data: patent US6958318B2, “Recombinant bacterial cells for delivery of PNP to tumor cells” (The UAB Research Foundation, priority 1993, dated 2005)
Entries after “also recorded” stand apart in the source; their conditions may differ.

Key:
Mel-1 melanoma cells = assay: Killing of Mel-1 cells transfected with Tyr-PNP or SV-PNP; assay type: cell-based, human; details: 30 μg/ml, day 6
From the text: (§1) To eliminate possible toxicity associated with the non-hydrolyzable cationic lipid component of the LipofectinJ, an alternative liposome transfection vehicle was used in the killing experiments. A liposome vehicle consisting of a 1:1 (weight/weight) mixture of the cationic lipid DOTAP (1,2-dioleoyloxy-3-(trimethylammonium)-propane) and the neutral lipid DOPE (dioleoyl-phosphatidylethanolamine) (Avanti Polar Lipids) display transfection properties similar to LipofectinJ, but with less toxicity (data not shown). DOTAP/DOPE liposomes were prepared by mixing 0.5 mg of DOTAP and 0.5 mg of DOPE and evaporating the chloroform solvent. Following the addition of 500 μl of cyclohexane, the mixture was placed on dry ice and lyophilized. One ml of sterile water was added to the powdered lipids and the solution was vortexed every 5 minutes for 30 minutes. T-84 or Mel-1 cells were seeded at 30% confluency in 24-well plates and allowed to grow overnight. […]
(§2) In cells that received the PNP or control plasmids, the media was changed two days after transfection and MeP-dR (6-methylpurine-deoxyriboside) added to the appropriate wells to a final concentration of 30 μg/ml. […] Two days later (day 6), the cells were washed once with PBS, resuspended, and counted in a 20% solution of trypan blue reagent (Trypan Blue Stain 0.4%, Gibco-BRL, Gaithersburg, Md.) using a hemacytometer. […]

16/C breast cancer cells = assay: Bystander killing, mixed wild type and PNP-transduced 16/C cells; assay type: cell-based, murine; details: 20 μg/ml
[1] = tested on: T-84 colon carcinoma cells; assay: Toxicity of MeP and MeP-dR in untransfected T-84 cells; assay type: cell-based, human; details: 5 days
Protocol: T-84 colon carcinoma cells were grown in Dulbecco's modified Eagle medium containing F12 nutrient medium (DMEM/F12) (GIBCO/BRL, Gaithersburg, Md.) in 6 well trays to a density of approximately […] (−20% confluency).
Untransfected T-84 colon carcinoma cells were treated with increasing concentrations of either MeP-dR or MeP. After 5 days the cells were removed from each well and the number of dye excluding cells were determined with the aid of a hemacytometer. Cells were studied both at passage 48 (p. 48) and passage 61 (p. 61). MeP was obtained from Sigma Chemical Company (St. Louis, Mo.). MeP-dR was synthesized by standard methods as described (J. A. Montgomery and K. Howson, J. Med. Chem., 11:48-52 (1968)). The nucleoside and base were dissolved in serum free DMEM/F12 at a concentration of 1 mg/ml and added directly to 1 ml DMEM/F12 with 10% fetal bovine serum at the concentrations described below in order to cover 1-2×10^5 cells/well.
Initial cytopathic effects due to MeP were observed within 24 hours (for example, rounding of cells, with some cells detaching from plate). Viable cells were counted 5 days following addition of drug. […] Trypan blue exclusion was used to confirm viability in cells retaining recognizable structure at all concentrations studied. […] If the toxicity of MeP-dR is due to very low levels of liberation of MeP by human PNP, then combination with selective inhibitors of human PNP could prevent this toxicity.

[2] = tested on: T-84 colon carcinoma cells; assay: Killing of T-84 cells transfected with SV-PNP (DOTAP/DOPE); assay type: cell-based, human; details: 30 μg/ml, day 6
From the text: as §1, §2

HEp-2 cells = assay: Toxicity to HEp-2 cells; assay type: cell-based

Cc1ncnc2c1ncn2[C@H]1C[C@H](O)[C@@H](CO)O1 [MeP-dR, 9-(β-D-2-deoxyerythropentofuranosyl)-6-methylpurine]
Killing of Mel-1 cells transfected with SV-PNP (Mel-1 melanoma cells): susceptible to killing
Killing of Mel-1 cells transfected with Tyr-PNP (Mel-1 melanoma cells): susceptible to killing
Toxicity to untransduced 16/C cells (16/C breast cancer cells): not toxic
Cell proliferation when as few as 2% of cells express E. coli PNP (16/C breast cancer cells; mixed culture): completely eliminated cell proliferation; also recorded: Complete abrogation of cellular proliferation
Share of cells expressing PNP required for total population cell killing (16/C breast cancer cells; LDH release assay): 1%
Toxicity to cells that were not transfected ([1]; 160 μM): minimally toxic
Cells killed ([1]; 200 and 400 μM): less than half of the cells were killed
Cell death ([1]; lower concentrations): did not cause any appreciable cell death
Killing of T-84 cells transfected with SV-PNP [2]: susceptible to killing
Fold less toxic than 6-methylpurine (MeP) (HEp-2 cells): 20 fold
